1 molecule from patent publication US20100197608A1, “USE OF MELANOTROPHIN-POTENTIATING FACTOR AS A THERAPEUTIC AGENT” (priority 2007, published 2010) can be followed below.

This assay concerns drug-resistant Mycobacterium tuberculosis. The settings on record: drug-resistant Mycobacterium tuberculosis growth; peptide 10 micrograms per ml; seven days.

Where a SMILES comes first, the peptide text is derived from it.

By % inhibition is commonly meant the drop in the measured response relative to a control, in per cent. High values mean a strong effect, low ones a weak effect. Regarding `NCCCC[C@H](NC(=O)[C@@H](N)CCCCN)C(=O)NCC(=O)N[C@@H](CCC(=O)O)C(=O)O` [MPF, Lys-Lys-Gly-Glu-OH] (H-KKGE-OH), the “% inhibition” value was found to be 0.0%.
